Experimental data as given in US10160771B2, “Hepatitis C virus inhibitors and uses thereof in preparation of drugs” (priority 2014, dated 2018).

Experiments:
[1] = test system: HCV genotype 1a (HCV-1a) replicon cells; assay: HCV genotype 1a replicon luciferase assay (EC50); format: cell-based, hepatitis C virus genotype 1a (H77 clone); details: Hepatitis C virus, 72 h, 3 days, luciferase (Bright-Glo)
Outline: (§1)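 H77-derived 1a (K1691R, K2040R, S2204I) or Con1-derived 1b (E1202G, T1280I, K1846T) luciferase replicon cells, 8000/well, exposed 3 days at 37° C. to 6-point 5-fold dilutions (top 100, 10 or 1 nM; 0.5% DMSO), in duplicate. Bright-Glo luminescence read; EC50 from nonlinear fit of % inhibition.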

[2] = test system: HCV genotype 1b (HCV-1b) replicon cells; assay: HCV genotype 1b replicon luciferase assay (EC50); format: cell-based, hepatitis C virus genotype 1b (Con1 clone); details: Hepatitis C virus, 72 h, 3 days, luciferase (Bright-Glo)
Outline: as §1

[3] = Cell Titer-fluor cell activity assay in HCV-1b replicon cells (CC50); format: cell-based
Outline: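 Con1 genotype 1b replicon cells (E1202G, T1280I, K1846T adaptive mutations), 8000 cells/well, exposed to 6-point 5-fold dilutions from 100, 10 or 1 nM top concentration in 0.5% DMSO, duplicate wells, 3 days at 37 °C. Viability read by Cell Titer-fluor (Ex 405/Em 515 nm) after 30 min; CC50 from nonlinear fit of inhibition %.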

Structure (SMILES) | EC50 [1] [nM] | EC50 [2] [nM] | CC50 at 3 days [3] [nM]
COC(=O)NC(C(=O)N1CCC[C@H]1c1ncc(-c2ccc(-c3ccc(-c4cnc(C5CCCC[C@@H]5C(=O)N(NC(=O)OC)C(C)C)[nH]4)cc3)cc2)[nH]1)C1CCOC1 (stereo partly drawn) [AA_122] | 10 to 100 | 0.101 to 1 | > 100
COC(=O)N[C@H](C(=O)N1CCC[C@H]1c1ncc(-c2ccc(-c3ccc(-c4cnc(C5C6CCC(C6)[C@@H]5C(=O)N[C@H](c5cccnc5)C(C)C)[nH]4)cc3)cc2)[nH]1)[C@@H](C)OC (stereo partly drawn) [AA_267_A] | 0.101 to 1 | 0.001 to 0.1 | > 1
COC(=O)N[C@H](C(=O)NC1(c2ncc(-c3ccc(-c4ccc(-c5ccc([C@@H]6CCCN6C(=O)[C@@H](NC(=O)OC)[C@@H](C)OC)[nH]5)cc4)cc3)[nH]2)CC1)[C@@H](C)OC [AG_106] | 10 to 100 | 0.001 to 0.1 | > 1
COC(=O)N[C@H](C(=O)N1CCC[C@H]1c1ncc(-c2ccc(-c3ccc(-c4cnc([C@H]5CCCC[C@@H]5C(=O)NC5(c6cccnc6)CC5)[nH]4)cc3)cc2)[nH]1)C(C)C [AA_186] | 1 to 10 | 0.101 to 1 | > 5
COC(=O)N[C@H](C(=O)N1CCC[C@H]1c1ncc(-c2ccc(-c3ccc(-c4cnc([C@H]5C6CCC(C6)[C@@H]5C(=O)Nc5ccccc5)[nH]4)cc3)cc2)[nH]1)C(C)C (stereo partly drawn) [AA_237_A] | 10 to 100 | 0.101 to 1 | > 1
COC(=O)N[C@H](C(=O)N1CCC[C@H]1c1ncc(-c2ccc(-c3ccc(-c4ccc([C@@H]5CCCN5C(=O)N(NC(=O)OC)C(C)C)[nH]4)cc3)cc2)[nH]1)C(C)C [AG_081_A] | 10 to 100 | 0.101 to 1 | > 5
COC(=O)N[C@H](C(=O)N1CCC[C@H]1c1ncc(-c2ccc(-c3ccc(-c4cnc([C@@H]5C6CCC(C6)[C@H]5C(=O)NCc5cccs5)[nH]4)cc3)cc2)[nH]1)C(C)C (stereo partly drawn) [AA_196_B] | 10 to 100 | 0.001 to 0.1 | > 1
COC(=O)N[C@H](C(=O)N1CCC[C@H]1c1cnc(-c2ccc(-c3ccc(-c4ncc(C5C6CCC(C6)[C@H]5C(=O)N(NC(=O)OC)C(C)C)[nH]4)cc3)cc2OC)[nH]1)C(C)C (stereo partly drawn) [AA_166_A] | 10 to 100 | 0.001 to 0.1 | > 5
COC(=O)N[C@H](C(=O)N1CCC[C@H]1c1ncc(-c2ccc(-c3ccc(-c4cnc([C@H]5C6CCC(C6)[C@@H]5C(=O)NCc5cccnc5C(C)C)[nH]4)cc3)cc2)[nH]1)C(C)C (stereo partly drawn) [AA_215_A] | 10 to 100 | 0.001 to 0.1 | > 1
COC(=O)N[C@H](C(=O)N1CCC[C@H]1c1ncc(-c2ccc(-c3ccc(-c4cnc([C@H]5C6CCC(C6)[C@@H]5C(=O)NCc5cccnc5C5CC5)[nH]4)cc3)cc2)[nH]1)C(C)C (stereo partly drawn) [AA_234_A] | 1 to 10 | 0.001 to 0.1 | > 1
COC(=O)N[C@H](C(=O)N1CCC[C@H]1c1ncc(-c2ccc(-c3ccc(-c4cnc(C5C6CCC(C6)[C@H]5C(=O)NCc5cccnc5SC)[nH]4)cc3)cc2)[nH]1)[C@@H](C)OC (stereo partly drawn) [AA_260_B] | 10 to 100 | 0.001 to 0.1 | > 1
COC(=O)N[C@H](C(=O)N1CCC[C@H]1c1ncc(-c2ccc(-c3ccc(-c4cnc([C@@H]5C6CCC(C6)[C@H]5C(=O)NC(CO)c5ccccn5)[nH]4)cc3)cc2)[nH]1)C(C)C (stereo partly drawn) [AA_243_B] | 0.101 to 1 | 0.001 to 0.1 | > 1
CCOC(=O)C(NC(=O)[C@H]1C2CCC(C2)[C@@H]1c1ncc(-c2ccc(-c3ccc(-c4cnc([C@@H]5CCCN5C(=O)[C@@H](NC(=O)OC)C(C)C)[nH]4)cc3)cc2)[nH]1)c1cccnc1 (stereo partly drawn) [AA_213] | 1 to 10 | 0.001 to 0.1 | > 1
COC(=O)N[C@H](C(=O)N1CCC[C@H]1c1ncc(-c2ccc(-c3ccc(-c4cnc(C5[C@H]6CC[C@H](C6)[C@H]5C(=O)N[C@@H](c5cccnc5)C(C)C)[nH]4)cc3)cc2)[nH]1)C(C)C (stereo partly drawn) [AA_233_ENDOA2_B] | 10 to 100 | 0.001 to 0.1 | > 1
COC(=O)N[C@H](C(=O)N1CCC[C@H]1c1ncc(-c2ccc(-c3ccc(-c4cnc([C@@H]5[C@H]6CC[C@H](C6)[C@H]5C(=O)N[C@@H](CO)c5cccnc5)[nH]4)cc3)cc2)[nH]1)C(C)C [AA_243_ENDOA2_A] | 1 to 10 | 0.001 to 0.1 | > 1
COC(=O)N[C@H](C(=O)N1CCC[C@H]1c1ncc(-c2ccc(-c3ccc(-c4cnc(C5C6CCC(C6)[C@@H]5C(=O)NCc5cccnc5O)[nH]4)cc3)cc2)[nH]1)[C@@H](C)OC (stereo partly drawn) [AA_263_B] | 1 to 10 | 0.101 to 1 | > 1
COC(=O)N[C@H](C(=O)N1CCC[C@H]1c1ncc(-c2ccc(-c3ccc(-c4cnc([C@@H]5C6CCC(C6)[C@H]5C(=O)NCc5cccnc5OC)[nH]4)cc3)cc2)[nH]1)C(C)C (stereo partly drawn) [AA_203_B] | 1 to 10 | 0.001 to 0.1 | > 1
